Data published in patent US20240148821A1, “PHARMACEUTICAL USE OF CYCLIC PEPTIDE COMPOUND” (CHUGAI SEIYAKU KABUSHIKI KAISHA, priority 2021, published 2024).
Numbered stars: 1 amine (or outer) side, 2 acyl side, 3 side chain; on linkers, the order of the positions; unused ones are H or OH. Bridge positions count the residues as written; N and C are the ends. Square brackets hold non-standard residues; d marks the D form. Peptide text beside a SMILES is read from it. * marks the point of attachment. hPhe(3-Cl-4-CF3) = N[C@@H](CCc1ccc(C(F)(F)F)c(Cl)c1)C(=O)O; NMePhe(4-CF3) = CN[C@@H](Cc1ccc(C(F)(F)F)cc1)C(=O)O; NMeAbu(4,4,4-F3) = CN[C@@H](CC(F)(F)F)C(=O)O; NMePhe(4-Cl) = CN[C@@H](Cc1ccc(Cl)cc1)C(=O)O; X131 = O=C([C@H](Cc1cccc(Br)c1F)N[*:1])[*:2]; NMePhe(4-Me) = CN[C@@H](Cc1ccc(C)cc1)C(=O)O; NMeGly(cPent) = CN[C@H](C(=O)O)C1CCCC1; Phe(2-Cl) = N[C@@H](Cc1ccccc1Cl)C(=O)O; Phe(3-I) = N[C@@H](Cc1cccc(I)c1)C(=O)O; Pro(4,4-F2) = O=C(O)[C@@H]1CC(F)(F)CN1; NMeY = CN[C@@H](Cc1ccc(O)cc1)C(=O)O; NMeCha = CN[C@@H](CC1CCCCC1)C(=O)O; NMeChg = CN[C@H](C(=O)O)C1CCCCC1; NMeF = CN[C@@H](Cc1ccccc1)C(=O)O; NMeD = CN[C@@H](CC(=O)O)C(=O)O; NMeL = CN[C@@H](CC(C)C)C(=O)O; NMeV = CN[C@H](C(=O)O)C(C)C; d(β3hA) = C[C@@H](N)CC(=O)O; NMeAbu = CC[C@H](NC)C(=O)O; dNMeS = CN[C@H](CO)C(=O)O; NMeA = CN[C@@H](C)C(=O)O; NMeAib = CNC(C)(C)C(=O)O; Nle = CCCC[C@H](N)C(=O)O; Piperidide = C1CCN(*)CC1; Pyrrolidide = C1CCN(*)C1; Ac5c = NC1(C(=O)O)CCCC1; Aze = O=C(O)[C@@H]1CCN1; Isopentyl = CC(C)CC*; Sar = CNCC(=O)O

tested on: Human pancreatic cancer cell line AsPC-1 (G12D mutation Kras); assay: AsPC-1 cell growth inhibition (AsPC-1 CGI); type: cell-based; conditions: read-out: AsPC-1 cell growth inhibition, 50% growth inhibitory concentration (IC50 value); 96 hours, CellTiter-Glo, values classified in ranges
Protocol: Test compounds were serially dilated with dimethyl sulfoxide, and 200 nL was then dispensed to a U-bottom 96-well plate using Labcyte Echo. […] The cell suspension was dispensed to a. plate containing a test compound at 100 μL per well and incubated at 37° C. in a 5% carbon dioxide gas incubator. 96 hours later, 80 μL of CellTiter-Glo (Promega) was added to each well and fluorescence was measured.

| SMILES | IC50 |
| --- | --- |
| CCCC[C@@H]1NC(=O)[C@H](Cc2cccc(Br)c2F)NC(=O)CN(C)C(=O)[C@H](Cc2ccc(OC)cc2)N(C)C(=O)[C@@H]2CCN2C(=O)[C@H](C)N(C)C(=O)[C@H]([C@@H](C)CC)NC(=O)[C@H](CC)N(C)C(=O)C[C@@H](C(=O)N2CCCCC2)N(C)C(=O)[C@H](CC(C)C)NC(=O)C(C)(C)N(C)C1=O [Compound 1304] ([NMeAbu]I[NMeA][Aze][NMeY](Me)[Sar][X131][Nle][NMeAib]L[NMeD]-Piperidide; lactam N-11) | > 0.5 µM |
| CC[C@H](C)[C@@H]1NC(=O)[C@H](CC(C)C)N(C)C(=O)C[C@@H](C)NC(=O)[C@H](C2CCCC2)N(C)C(=O)[C@H](C(C)C)NC(=O)[C@@H]2CCCN2C(=O)[C@H](CCc2ccc(C(F)(F)F)c(Cl)c2)NC(=O)CN(C)C(=O)[C@H](Cc2ccc(C)cc2)N(C)C(=O)[C@@H]2CCN2C(=O)[C@H](C)N(C)C1=O [Compound 933] (cyclo([Aze][NMePhe(4-Me)][Sar][hPhe(3-Cl-4-CF3)]PV[NMeGly(cPent)][d(β3hA)][NMeL]I[NMeA])) | > 0.5 µM |
| CC[C@H](C)[C@@H]1NC(=O)[C@H](CC(F)(F)F)N(C)C(=O)C[C@@H](C(=O)N2CCCC2)N(C)C(=O)[C@H](C2CCCCC2)N(C)C(=O)C2(CCCC2)NC(=O)[C@@H]2CC(F)(F)CN2C(=O)[C@H](CCc2ccc(C(F)(F)F)c(Cl)c2)NC(=O)CN(C)C(=O)[C@H](Cc2ccc(C(F)(F)F)cc2)N(C)C(=O)CN(C)C(=O)CN(C)C1=O [Compound 1196] ([NMeAbu(4,4,4-F3)]I[Sar][Sar][NMePhe(4-CF3)][Sar][hPhe(3-Cl-4-CF3)][Pro(4,4-F2)][Ac5c][NMeChg][NMeD]-Pyrrolidide; lactam N-11) | ≤ 0.02 µM |
| CC[C@H](C)[C@@H]1NC(=O)[C@H](CC(C)C)N(C)C(=O)C[C@@H](C(=O)N2CCCCC2)N(C)C(=O)[C@H](CC(C)C)NC(=O)C(C)(C)N(C)C(=O)[C@H](Cc2ccccc2Cl)NC(=O)[C@H](Cc2cccc(I)c2)NC(=O)CN(C)C(=O)[C@H](Cc2ccc(C)cc2)N(C)C(=O)CN(C)C(=O)CN(C)C1=O [Compound 706] ([NMeL]I[Sar][Sar][NMePhe(4-Me)][Sar][Phe(3-I)][Phe(2-Cl)][NMeAib]L[NMeD]-Piperidide; lactam N-11) | > 0.5 µM |
| CC[C@H](C)[C@@H]1NC(=O)[C@H](CC(C)C)N(C)C(=O)C[C@@H](C)NC(=O)[C@H](C(C)C)N(C)C(=O)C2(CCCC2)NC(=O)[C@@H]2CCCN2C(=O)[C@H](CCc2ccc(C(F)(F)F)c(Cl)c2)NC(=O)CN(C)C(=O)[C@H](Cc2ccccc2)N(C)C(=O)CN(C)C(=O)CN(C)C1=O [Compound 1606] (cyclo([Ac5c][NMeV][d(β3hA)][NMeL]I[Sar][Sar][NMeF][Sar][hPhe(3-Cl-4-CF3)]P)) | > 0.5 µM |
| CC[C@H](C)[C@@H]1NC(=O)[C@H](CC(C)C)N(C)C(=O)C[C@@H](C(=O)N2CCCCC2)N(C)C(=O)[C@H](C2CCCC2)N(C)C(=O)C2(CCCC2)NC(=O)[C@@H](COCCC(C)C)N(C)C(=O)[C@H](CCc2ccc(C(F)(F)F)c(Cl)c2)NC(=O)CN(C)C(=O)[C@H](CC2CCCCC2)N(C)C(=O)[C@@H]2CCN2C(=O)[C@H](C)N(C)C1=O [Compound 1443] ([NMeL]I[NMeA][Aze][NMeCha][Sar][hPhe(3-Cl-4-CF3)][dNMeS](Isopentyl)[Ac5c][NMeGly(cPent)][NMeD]-Piperidide; lactam N-11) | > 0.5 µM |
| CC[C@H](C)[C@@H]1NC(=O)[C@H](CC(C)C)N(C)C(=O)C[C@@H](C(=O)N2CCCCC2)N(C)C(=O)[C@H](CC(C)C)NC(=O)C(C)(C)N(C)C(=O)[C@H](CC(C)C)NC(=O)[C@H](Cc2cccc(I)c2)NC(=O)CN(C)C(=O)[C@H](Cc2ccc(Cl)cc2)N(C)C(=O)CN(C)C(=O)CN(C)C1=O [Compound 295] ([NMeL]I[Sar][Sar][NMePhe(4-Cl)][Sar][Phe(3-I)]L[NMeAib]L[NMeD]-Piperidide; lactam N-11) | > 0.5 µM |
